Laboratory results from patent publication US20230293711A1, “DISRUPTION OF CD28-SIALOSIDE LIGAND COMPLEXES TO ENHANCE T CELL ACTIVATION” (THE SCRIPPS RESEARCH INSTITUTE, priority 2020, published 2023).

Tests used:
[1] = tested on: OT-II cells; assay: APC-free expansion of OT-II cells with anti-CD3 and recombinant CD80 in the presence of soluble glycan; type: cell-based; conditions: soluble glycan 500 μM; anti-CD3 and recombinant CD80-Fc
Procedure: FIG. 7. APC-free expansion of OT-II cells in the presence of soluble glycan (500 μM). (A) Experimental setup. T cells were activated using anti-CD3 (αCD3) and recombinant CD80 (rCD80). (B) OT-II cell proliferation histograms. (C) Quantification of data from (B).
Since recombinant CD80 binding to CD28 was the sole source of co-stimulation for T cells in this experiment, we conclude that sialic acid ligands of CD28 functionally suppress CD28 mediated co-stimulation.

[2] = biological target: T1, mouse PD-1 (mPD1) (Mus musculus, UniProt Q02242); assay: Binding of expressed anti-PD-1 monoclonal antibodies and conjugate to mouse PD-1 (ELISA); conditions: anti-hPD1 clones
T1 sequence (Q02242 25-288): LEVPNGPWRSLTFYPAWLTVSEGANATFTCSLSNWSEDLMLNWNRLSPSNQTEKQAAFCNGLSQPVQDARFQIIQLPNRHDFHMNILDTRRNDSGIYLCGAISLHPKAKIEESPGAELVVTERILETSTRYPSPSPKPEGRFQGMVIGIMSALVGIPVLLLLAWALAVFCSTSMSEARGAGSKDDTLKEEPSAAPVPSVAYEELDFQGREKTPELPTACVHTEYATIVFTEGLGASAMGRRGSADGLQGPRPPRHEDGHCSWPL
Source text: FIG. 11. Three expressed anti PD-1 monoclonal antibodies targeted respectively to either human PD-1 (hPD1) and mouse PD-1 (mPD1) bind with high specificity and affinity.
(§1) We investigated the possibility of using non-specific small-molecule linkers to install multiple reactive sites on three expressed αPD1 monoclonal antibodies. […] Through an inverse Electron Demand Diels Alder (iEDDA) reaction, two molecules conjugated respectively with tetrazine and TCO moieties can react rapidly and covalently under ambient conditions. Utilizing the methodology and reagents shown in the reaction scheme in FIG. 12A, we incubated αPD1 antibody clones with NHS-tetrazine 1, allowing non-selective labeling of solvent-exposed lysine residue side-chains (FIG. 12A). Simultaneously, we modified an expressed sialidase from Salmonella typhimurium (ST) containing a C-terminal cysteine though incubation with a 40-fold molar excess of TCO-maleimide 2, leading to near-complete selective modification of the free thiol group (FIG. 12A). To optimize conjugation yield, leading to maximum utilization of antibody starting material while also producing defined products with small numbers of ST per antibody, we titrated the molar ratio of NHS-tetrazine used to load the antibody with reactive groups in step one of the conjugation reaction (FIG. 12B). […]

[3] = Sialidase activity of purified αPD1-S against MUNANA; type: biochemical; conditions: 1 activity unit=1 μmol min-1; purified single- and double-modified αPD1-S
Procedure: as §1

[4] = biological target: human CD28 (Homo sapiens, UniProt P10747); assay: Steady state SPR of soluble glycan binding to surface immobilized CD28
Source text: FIG. 5. Biophysical characterization of a CD28-sialoside interaction. Steady state SPR data for α2,3-Sialyl-triLacNAc and triLacNAc binding to surface immobilized human CD28.
As an orthogonal test for sialoside binding and to assess the affinity of a sialoside ligand, we tested the ability of surface-immobilized CD28 to bind to a soluble sialylated glycan using SPR.

[5] = biological target: chimeric PD-1 fused to green fluorescent protein, expressed on Jurkat T cells; assay: cell-based or functional assay
[6] = tested on: DCs (expressing CD80); assay: Binding of recombinant CD28-Fc to sialidase-treated DCs (flow cytometry); type: cell-based, mouse
[7] = tested on: OT-I cells (CD8^+ T cells); assay: OT-I proliferation (CTV dilution) in co-culture with OVA-loaded DCs with or without sialidase
[8] = tested on: exhausted P14 cells; type: cell-based, mouse
[9] = tested on: Polyclonal CD8^+ T cells exhausted via chronic LCMV infection; type: cell-based, mice
[10] = tested on: OT-II cells; assay: Adoptive transfer of ex vivo desialylated CTV-stained OT-II cells into OVA experienced host mice; type: in vivo; conditions: cells treated ex vivo 45 min at 37° C.; OVA sensitized mice; vs normally sialylated control
Procedure: FIG. 8. Desialylated T cells are more readily activated in vivo. (A) WT mice were injected with OVA on day 1. On day 2, OT-II cells were treated with sialidase or PBS ex vivo for 45 min. at 37° C. and subsequently stained with CTV. These cells were then adoptively transferred into OVA experienced host mice (or naïve mice as a control). On day 5, spleens from host mice were analyzed for adoptively transferred OT-II cells and CTV dilution was evaluated. […] (C) Quantification of data from (B). […] Normalized division index corresponds to T cell division index for sialidase-treated cultures divided by the division index for the corresponding PBS treated control.
To investigate the translatability of these findings to an in vivo system, we adoptively transferred CTV-stained OT-II cells that were desialylated ex vivo into a WT host mouse. We observed that desialylated OT-II cells expanded more efficiently in vivo as compared to a normally sialylated control (FIG. 8).

[11] = tested on: OT-II cells (CD4^+ T cells); assay: OT-II proliferation (CTV dilution) in co-culture with OVA-loaded DCs with or without sialidase
[12] = tested on: T cells (CD4^+ and CD8^+) from murine spleen (expressing CD28); assay: Binding of recombinant CD80-Fc to sialidase-treated T cells (flow cytometry); type: cell-based
[13] = biological target: mouse PD-1 (mouse) (UniProt Q02242); assay: ELISA (FIG. 11)
[14] = biological target: T2, human PD-1 (human, UniProt Q15116 25-167, limits assumed); assay: ELISA (FIG. 11)
T2 construct: also called hPD1

[15] = biological target: T3, CD80 on murine dendritic cells (mouse, UniProt Q00609 38-306); assay: flow cytometry on DCs with or without sialidase
T3 construct: whole, on cells; DCs (expressing CD80), untreated or treated with V. cholerae sialidase; also called B7-1
T3 sequence: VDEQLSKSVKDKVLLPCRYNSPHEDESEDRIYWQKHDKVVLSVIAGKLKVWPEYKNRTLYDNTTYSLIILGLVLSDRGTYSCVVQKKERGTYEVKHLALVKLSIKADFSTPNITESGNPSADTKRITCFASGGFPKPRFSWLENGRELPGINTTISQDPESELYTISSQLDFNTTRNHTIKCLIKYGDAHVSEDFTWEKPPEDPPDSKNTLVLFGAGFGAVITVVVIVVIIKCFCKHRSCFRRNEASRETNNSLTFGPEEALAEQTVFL

[16] = OVA-loaded bone marrow derived DCs, 3 days, vs PBS
[17] = bulk OVA-loaded splenocytes, DCs differentiated using Flt3L

Chain of human CD28 (P10747 19-220): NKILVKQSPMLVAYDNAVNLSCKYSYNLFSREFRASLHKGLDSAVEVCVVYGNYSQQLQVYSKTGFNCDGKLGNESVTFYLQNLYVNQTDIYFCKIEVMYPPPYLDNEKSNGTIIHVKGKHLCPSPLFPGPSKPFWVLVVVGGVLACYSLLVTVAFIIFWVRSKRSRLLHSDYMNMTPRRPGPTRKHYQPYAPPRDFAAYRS
T2 sequence (Q15116 25-167 limits assumed): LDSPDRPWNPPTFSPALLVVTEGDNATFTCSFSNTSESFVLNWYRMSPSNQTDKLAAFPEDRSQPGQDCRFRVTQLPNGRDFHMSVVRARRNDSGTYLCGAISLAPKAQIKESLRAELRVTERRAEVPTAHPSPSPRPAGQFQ

Molecule: NeuAcα2-3Galβ1-4(Fucα1-3)GlcNAc [sialylated-Lewis X]
- T cell proliferation [1]: significant reduction

Molecule: Pembrolizumab [409A11]
- affinity for mPD1 [2]: no affinity
- sialidase activity against MUNANA [3]: 26 U mL-1

Molecule: α2,3-Sialyl-triLacNAc [soluble sialylated glycan]
- Kd [4]: 112 µM

Molecule: αhPD1-S (409A11), conjugate of anti-human PD-1 clone 409A11 and Salmonella typhimurium sialidase (from UniProt P29768 2-382)
- desialylation of Jurkat-PD1-GFP against Jurkat T cells (lectin staining SNA, PNA, MAA-II, flow cytometry) [5]: > 100 fold
- fold decrease in level of αPD1-S needed for similar desialylation of Jurkat-PD1-GFP against native Jurkat cells [5]: 100 to 1000 fold

Molecule: sialidase: free sialidase; from V. cholerae in FIG. 2 and 6, source not stated for the other experiments
- binding of recombinant CD28-Fc to desialylated DCs compared to untreated controls [6]: significant enhancement
- enhancement of CD8^+ T cell proliferation [7, 16]: 2-3 fold
- OT-I cell activation with alternative APC sources [7, 17]: enhancement
- cytokine production (IFN-γ/TNF-α) [8]: enhanced
- T cell activation (percentage of cells expressing IFN-γ and granzyme B) over peptide alone [9]: enhanced
- expression of LAMP-1 over peptide alone [9]: enhanced
- proliferation of adoptively transferred OT-II cells in vivo [10]: enhanced proliferation
- enhancement of CD4^+ T cell proliferation [11, 16]: 2-3 fold
- OT-II cell activation with alternative APC sources [11, 17]: enhancement
- binding of recombinant CD80-Fc to desialylated T cells compared to untreated controls [12]: significant enhancement

B1: anti-mouse PD-1 monoclonal antibody clone J43 (antibody, from another filing, V domains shown)
VH: EVRLLESGGGLVKPEGSLKLSCVASGFTFSDYFMSWVRQAPGKGLEWVAHIYTKSYNYATYYSGSVKGRFTISRDDSRSMVYLQMNNLRTEDTATYYCTRDGSGYPSLDFWGQGTQVTVSS
VL: YELTQPPSASVNVGETVKITCSGDQLPKYFADWFHQRSDQTILQVIYDDNKRPSGIPERISGSSSGTTATLTIRDVRAEDEGDYYCFSGYVDSDSKLYVFGSGTQLTVLG
- EC50 [13]: 0.39 µg/mL

B2: anti-human PD-1 monoclonal antibody clone 1H3 (antibody, V domains shown)
VH: EVQLVESGGGLVKPGGSLKLSCAASGFTFSDYGMHWVRQAPEKGLEWVAYISSGSYTIYYTDTVKGRFTISRDNAKNTLFLQMTSLRSEDTAMYYCARRGYGSFYEYYFDYWGQGTTLTVSS
VL: QIVLTQSPALMSASPGEKVTMTCSASSSVSYMYWYQQKPRSSPKPWIYLTSNLASGVPARFSGSGSGTSYSLTISSMEAEDAATYYCQQWSSNPFTFGSGTKLEIK
- EC50 [14]: 0.16 µg/mL

B3: recombinant chimeric mouse CD28 fused to human Fc (Fc fusion, UniProt P31041 20-150, looked up)
chain: NKILVKQSPLLVVDSNEVSLSCRYSYNLLAKEFRASLYKGVNSDVEVCVGNGNFTYQPQFRSNAEFNCDGDFDNETVTFRLWNLHVNHTDIYFCKIEFMYPPPYLDNERSNGTIIHIKEKHLCHTQSSPKL
notes: Commercial Fc chimera; also called CD28-Fc; not shown: human Fc
- binding result [15]: binds
